Assay results published in patent US20220235011A1, “PHTHALAZINONE COMPOUNDS AND USE THEREOF” (ST PHARM CO., LTD., priority 2019, published 2022).

Biological target: T1, Sirt6 (Homo sapiens, UniProt Q8N6T7)
T1 construct: purchased CycLex CY-1156V2
Experiment: Measurement of Sirt6 Activity (CycLex Sirt6 Deacetylase Fluorometric Assay Kit)
Format: biochemical
Conditions: compound at 10 μM; fluorescence relative to the group without compound treatment (positive control group)
Method: LC-MS (ESI, m/z)=430.1 (M+H^+) Experimental Example 1: Measurement of Sirt6 Activity Compounds having Sirt6 activity were selected using a CycLex Sirt6 Deacetylase Fluorometric Assay Kit (cat. CY-1156V2) manufactured by CycLex.
When a fluorescent-attached acetylated lysine substrate is treated with Sirt6 enzyme, Sirt6 deacetylates the acetylated lysine of the substrate and lysylendopeptidase cleaves the C-terminal peptide bond connected to the lysine, by which fluorescence is emitted. The activity of a compound is calculated by observing the intensity of fluorescence when the compound is treated along with Sirt6 enzyme. When treating the compound, the compound aids in the activity of Sirt6 enzyme, so as to result in stronger fluorescence. Therefore, by calculating the ratio of the stronger fluorescence relative to the fluorescence emitted from the group without compound treatment (i.e., positive control group), relative activity can be calculated.
Activity evaluation was performed according to the following procedure.
The compound whose activity is to be evaluated was prepared by diluting in phosphate-buffered saline (PBS) to 10 times of the desired concentration (e.g., when measuring Sirt6 assay activity at 10 μM, the compound is prepared at a concentration of 100 μM in PBS). 1 μL of a 1 Ox Sirt6 assay buffer, 0.8 μL of 50× fluoro-substrate peptide, 1 μL of nicotinamide adenine dinucleotide (NAD), 1 μL of a developer and 4.2 μL of H2O were mixed to prepare mixtures equal to the number of samples, and 8 μL was dispensed into each Black 384 well. An additional 1 μL of PBS was added to each of a “no enzyme group” and a positive control group, and 1 μL of the compound diluted in PBS was added to an activity evaluation group. Recombinant Sirt6 was 1:8 diluted in a 1×Sirt6 assay buffer, and 1 μL thereof was added to each of the positive control group and the activity evaluation group. 1 μL of the 1×Sirt6 assay buffer was added to the “no enzyme group.” After reacting at room temperature for one hour, results were measured with a fluorescence spectrometer (excitation: 490±10 nm, emission: 530±10 nm) to confirm the presence or absence of Sirt6 activity and measure the intensity of the activity.

T1 sequence (Q8N6T7 whole entry): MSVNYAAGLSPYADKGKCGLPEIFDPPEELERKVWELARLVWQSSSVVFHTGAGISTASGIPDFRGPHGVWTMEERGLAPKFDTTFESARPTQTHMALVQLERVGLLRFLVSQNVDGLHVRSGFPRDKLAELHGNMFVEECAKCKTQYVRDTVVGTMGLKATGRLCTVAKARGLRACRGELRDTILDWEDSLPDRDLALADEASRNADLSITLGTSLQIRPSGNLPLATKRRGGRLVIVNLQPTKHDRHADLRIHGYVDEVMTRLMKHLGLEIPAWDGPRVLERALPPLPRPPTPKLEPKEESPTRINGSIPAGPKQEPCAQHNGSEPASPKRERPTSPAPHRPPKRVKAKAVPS

| Structure (SMILES) | Sirt6 Activity (% activity, 10 μM) [% activity] |
| --- | --- |
| CCS(=O)(=O)Nc1cccc(-c2nn(-c3ccccc3)c(=O)c3ccccc23)c1 [Example 1, N-(3-(4-Oxo-3-phenyl-3,4-dihydrophthalazin-1-yl)phenyl)ethanesulfonamide] | 170 |
| Nc1cccc(-c2nn(-c3ccc(C(F)(F)F)cc3)c(=O)c3ccccc23)c1 [Example 2, 4-(3-Aminophenyl)-2-(4-(trifluoromethyl)phenyl)phthalazin-1(2H)-one] | 88 |
| CCS(=O)(=O)Nc1cccc(-c2nn(-c3ccc(C(F)(F)F)cc3)c(=O)c3ccccc23)c1 [Example 3, N-(3-(4-Oxo-3-(4-(trifluoromethyl)phenyl)-3,4-dihydrophthalazin-1-yl)phenyl)ethanesulfonamide] | 104 |
| CCS(=O)(=O)N(C)c1cccc(-c2nn(-c3ccc(C(F)(F)F)cc3)c(=O)c3ccccc23)c1 [Example 5, N-Methyl-N-(3-(4-oxo-3-(4-(trifluoromethyl)phenyl)-3,4-dihydrophthalazin-1-yl)phenyl)ethanesulfonamide] | 105 |
| CS(=O)(=O)Nc1cccc(-c2nn(-c3ccccc3)c(=O)c3ccccc23)c1 [Example 6, N-(3-(4-Oxo-3-phenyl-3,4-dihydrophthalazin-1-yl)phenyl)methanesulfonamide] | 102 |
| CN(c1cccc(-c2nn(-c3ccccc3)c(=O)c3ccccc23)c1)S(C)(=O)=O [Example 7, N-Methyl-N-(3-(4-oxo-3-phenyl-3,4-dihydro-phthalazin-1-yl)phenyl)methanesulfonamide] | 173 |
| CCS(=O)(=O)Nc1ccc(-c2nn(-c3ccccc3)c(=O)c3ccccc23)cc1 [Example 8, N-(4-(4-Oxo-3-phenyl-3,4-dihydrophthalazin-1-yl)phenyl)ethanesulfonamide] | 100 |
| CN(C)S(=O)(=O)Nc1cccc(-c2nn(-c3ccccc3)c(=O)c3ccccc23)c1 [Example 9] | 154 |
| CS(=O)(=O)N(c1cc(-c2nn(-c3ccccc3)c(=O)c3ccccc23)ccc1Cl)S(C)(=O)=O [Example 18, N-(2-Chloro-5-(4-oxo-3-phenyl-3,4-dihydrophthalazin-1-yl)phenyl)-N-(methylsulfonyl)methane-sulfonamide] | 114 |
| CN(C)S(=O)(=O)Nc1cc(-c2nn(-c3ccccc3)c(=O)c3ccccc23)ccc1Cl [Example 19, N-(3-(3-(Phenyl)-4-oxo-3,4-dihydrophthalazin-1-yl)-6-chlorophenyl)dimethyl Sulfamoylamide] | 120 |
| Nc1cccc(-c2nn(-c3ccc(F)cc3F)c(=O)c3ccccc23)c1 [Example 24, 4-(3-Aminophenyl)-2-(2,4-difluorophenyl)phthalazin-1(2H)-one] | 147 |
| CCS(=O)(=O)Nc1cccc(-c2nn(-c3ccc(F)cc3F)c(=O)c3ccccc23)c1 [Example 25, N-(3-(3-(2,4-Difluorophenyl)-4-oxo-3,4-dihydrophthalazin-1-yl)phenyl)ethanesulfonamide] | 147 |
| COC(=O)NS(=O)(=O)Nc1cccc(-c2nn(-c3ccc(F)cc3F)c(=O)c3ccccc23)c1 [Example 26, Methyl (N-(3-(3-(2,4-difluorophenyl)-4-oxo-3,4-dinydrophthalazin-1-yl)phenyl)sulfamoyl)carbamate] | 180 |
| CCS(=O)(=O)Nc1cccc(-c2nn(-c3cccc(F)c3)c(=O)c3ccccc23)c1 [Example 30, N-(3-(3-(3-Fluorophenyl)-4-oxo-3,4-dihydrophthalazin-1-yl)phenyl)ethanesulfonamide] | 117 |

The remaining lines, values ahead:

| Sirt6 Activity (% activity, 10 μM) [% activity] | Structure (SMILES) |
| --- | --- |
| 102 | CCNc1cccc(-c2nn(-c3ccc(C(F)(F)F)cc3)c(=O)c3ccccc23)c1 [Example 4, 4-(3-(Ethylamino)phenyl)-2-(4-(trifluoro-methyl)phenyl)phthalazin-1(2H)-one] |
| 198 | CS(=O)(=O)Nc1cccc(-c2nn(-c3ccc(F)cc3)c(=O)c3ccccc23)c1 [Example 10, N-(3-(3-(4-Fluorophenyl)-4-oxo-3,4-dihydrophthalazin-1-yl)phenyl)methanesulfonamide] |
| 162 | CCS(=O)(=O)Nc1cccc(-c2nn(-c3ccc(F)cc3)c(=O)c3ccccc23)c1 [Example 11, N-(3-(3-(4-Fluorophenyl)-4-oxo-3,4-dihydrophthalazin-1-yl)phenyl)ethanesulfonamide] |
| 189 | CN(C)S(=O)(=O)Nc1cccc(-c2nn(-c3ccc(F)cc3)c(=O)c3ccccc23)c1 [Example 12, N-(3-(3-(4-Fluorophenyl)-4-oxo-3,4-dihydrophthalazin-1-yl)phenyl)dimethylsulfamoylamide] |
| 181 | C/[N+]([O-])=C/c1cccc(-c2nn(-c3ccccc3)c(=O)c3ccccc23)c1 [Example 13, (Z)—N-Methyl-1-(3-(4-oxo-3-phenyl-3,4-dihydrophthalazin-1-yl)phenyl)methanimine Oxide] |
| 121 | CC(C)/[N+]([O-])=C/c1cccc(-c2nn(-c3ccccc3)c(=O)c3ccccc23)c1 [Example 14, (Z)—N-Isopropyl-1-(3-(4-oxo-3-phenyl-3,4-dihydrophthalazin-1-yl)phenyl)methanimine Oxide] |
| 231 | C/[N+]([O-])=C/c1cccc(-c2nn(-c3ccc(F)cc3)c(=O)c3ccccc23)c1 [Example 15, (Z)-1-(3-(3-(4-Fluorophenyl)-4-oxo-3,4-dihydrophthalazin-1-yl)phenyl)-N-methylmethanimine Oxide] |
| 221 | CC/[N+]([O-])=C/c1cccc(-c2nn(-c3ccc(F)cc3)c(=O)c3ccccc23)c1 [Example 16, (Z)—N-Ethyl-1-(3-(3-(4-fluorophenyl)-4-oxo-3,4-dihydrophthalazin-1-yl)phenyl)methanimine Oxide] |
| 211 | COC(=O)NS(=O)(=O)Nc1cccc(-c2nn(-c3ccc(F)cc3)c(=O)c3ccccc23)c1 [Example 20, Methyl (N-(3-(3-(4-fluorophenyl)-4-oxo-3,4-dihydrophthalazin-1-yl)phenyl)sulfamoyl) Carbamate] |
| 167 | C/[N+]([O-])=C/c1cccc(-c2nn(-c3ccc(F)cc3F)c(=O)c3ccccc23)c1 [Example 21, (Z)-1-(3-(3-(2,4-Difluorophenyl)-4-oxo-3,4-dihydrophthalazin-1-yl)phenyl)-N-methyl methanimine Oxide] |
| 201 | CC(C)/[N+]([O-])=C/c1cccc(-c2nn(-c3ccc(F)cc3F)c(=O)c3ccccc23)c1 [Example 22, (Z)-1-(3-(3-(2,4-Difluorophenyl)-4-oxo-3,4-dihydrophthalazin-1-yl)phenyl)-N-isopropyl Methanimine Oxide] |
| 192 | CC(C)(C)/[N+]([O-])=C/c1cccc(-c2nn(-c3ccc(F)cc3F)c(=O)c3ccccc23)c1 [Example 23, (Z)—N-tert-Butyl-1-(3-(3-(2,4-difluorophenyl)-4-oxo-3,4-dihydrophthalazin-1-yl)phenyl)methanimine Oxide] |
| 148 | C/[N+]([O-])=C/c1cccc(-c2nn(-c3cccc(F)c3)c(=O)c3ccccc23)c1 [Example 27, (Z)-1-(3-(3-(3-Fluorophenyl)-4-oxo-3,4-dihydrophthalazin-1-yl)phenyl)-N-methylmethanimine Oxide] |
| 154 | CC(C)/[N+]([O-])=C/c1cccc(-c2nn(-c3cccc(F)c3)c(=O)c3ccccc23)c1 [Example 28, (Z)-1-(3-(3-(3-Fluorophenyl)-4-oxo-3,4-dihydrophthalazin-1-yl)phenyl)-N-isopropylmethanimine Oxide] |
| 162 | CC(C)(C)/[N+]([O-])=C/c1cccc(-c2nn(-c3cccc(F)c3)c(=O)c3ccccc23)c1 [Example 29, (Z)—N-tert-Butyl-1-(3-(3-(3-fluorophenyl)-4-oxo-3,4-dihydrophthalazin-1-yl)phenyl)methanimine Oxide] |

Same assay, conditions: compound at 10 μM; fluorescence relative to the group without compound treatment (positive control group); 10 µM

| Sirt6 Activity (% activity, 10 μM) [% activity] | Structure (SMILES) |
| --- | --- |
| 207 | CC(C)/[N+]([O-])=C/c1cccc(-c2nn(-c3ccc(F)cc3)c(=O)c3ccccc23)c1 [Example 17, (Z)-1-(3-(3-(4-Fluorophenyl)-4-oxo-3,4-dihydrophthalazin-1-yl)phenyl)-N-isopropylmethanimine Oxide] |
